Entries after “also recorded” stand apart in the source; their conditions may differ.
Assays:
Mice (C57BL/6) [1] = test: Observation of melanogenesis / anagen induction, external and peeled skin (Example D); type: in vivo; conditions: 60 nM; for Black colour in peeled skin (day 16): animals out of 5; for % anagen induction**: with respect to black colour in peeled skin; for Black colour in peeled skin (day 16) / % anagen induction**: day 16; for % anagen induction*: with respect to external skin colour change from pink to black
Excerpt: (§1) Animals and treatments are as described above in Example B.
(§2) All animals were sacrificed on day 16.
Following completion of the term of hair growth assessment for Example B, the animals were euthanized and dorsal skin peeled and removed for observation of the internal surface.
The hair growth cycle consists of three phases: a resting telogen phase (C57BL/6 skin is a pale pink colour), an active hair growth anagen phase (where the skin becomes dark gray or black), and finally a catagen phase (where hair growth stops, and the skin transitions back to the telogen phase, returning to a pale pink colour).
(§3) In the present study, the animals were preselected for pink skin (telogen phase) and the test polypeptide was administered by subcutaneous/topical route. A good hair growth promoter triggers the transition from the resting telogen phase to the active anagen phase, and thus a transition from light skin to dark skin. This dark pigmentation may result from the collection of melanin in the hair follicles, in preparation for new hair growth during the anagen phase. Melanin synthesis of follicular melanocytes is strictly coupled to the anagen phase, ceases during catagen and is absent in telogen phase. […] Upon termination, the dorsal skin of the animals was then excised out by peeling and the peeled skin reversed and observed for the induction of melanogenesis indicated by visual blackening. […] A good hair growth promoter increases no. of follicles in sub cutis and skin thickness.

Mice (C57BL/6) [2] = test: In vivo study of hair growth effect in mice, hair growth score (Example B); design: Hair growth score / Hair growth score, Mean: scale not given here; conditions: for day from which hair growth was evident / hair growth effect / Hair growth score, Mean: 60 nM s.c. on Days 1, 5 and 9; for hair growth effect: assessment to day 16; for Hair growth score, Mean: mean of 5 animals
Description: Mice (C57BL/6) were used at an age of 6 to 8 weeks.
• Selection of animals in telogen phase of hair growth. • Clipping of dorsal back of animals • Subcutaneous injection of test peptide/vehicle • Visual analysis: Percentage anagen induction; Mean hair growth score; Visual melanogenesis: • Histological analysis: Follicle count in subcutis; Morphometry for skin thickness. Treatment Groups • Animals were assigned randomly to treatment groups (see Table 3)
• Animals were administered the specified treatment on Days 1, 5 and 9 • Treatment were administered by subcutaneous injection into dorsal clipped skin Scoring Criteria • The effect of the treatments was observed and scored daily according to the criteria in Table 4

Mice (C57BL/6) [3] = test: Histological analysis of peeled skin: follicle count in subcutis and skin thickness (Example D); type: in vivo; design: Skin thickness: unit not given here; conditions: Mean ± sem, day 16, 60 nM
Description: as §1, §2
Peeled skin sections were prepared for histological analysis as described in Example A. Follicle count in the subcutis and skin thickness were then measured.
as §3

Mice (C57BL/6) [4] = test: In vivo study of hair growth effect in mice of the wildtype osteopontin fragment (Example C); design: Hair growth score, Mean: scale not given here; conditions: for Hair growth score, Mean: mean of 6 animals
Description: Animals, as described above in Example B, were treated as described in Table 6:
• This sequence is a fragment of wildtype mouse osteopontin, and corresponds to the region of the protein from which “FOL-004” is derived (i.e. “FOL-004” is a mutated version of wildtype fragment “FOL-001”). • Animals were administered the specified treatment on Days 1, 5 and 9 • Treatment were administered by subcutaneous injection into dorsal clipped skin Scoring Criteria • The effect of the treatments was observed and scored daily as described in Example B. Results

male wtC57BL/6N mice = test: In vivo study of hair follicle density in mouse skin after intracutaneous injection (Example A); conditions: data not shown
Excerpt: The modified osteopontin polypeptide sequence SEQ ID NO:1 was cloned into a pCEP4 expression vector by the use of XhoI and BamHI restriction enzyme sites. The pCEP4 expression vector contains an ampicillin resistance gene for expression in bacteria and a hygromycin resistance gene for expression in eukaryotic EBNA cells. The polypeptide containing vector were transformed into competent XL-10 bacteria cells, multiplied and isolated with Qiagen midi prep kit. Isolated vectors were then transfected into human EBNA cells by the use of Fugene transfection reagent according to manufacture protocol (Invitrogen).
Medium from EBNA cell culture containing the produced polypeptide were collected after three to four days of culture. Polypeptides produced by pCEP4 plasmid contain an inserted His-tag, which is used to facilitate the isolation with Ni-sepharose gel chromatography (Invitrogen). Collected medium was diluted with binding buffer (20 mM sodium phosphate, 500 mM sodium chloride, pH 7.8), Ni-sepharose suspension was added before incubation on shaker overnight at 4° C. […]
Protocol for Hematoxylin-staining of paraffin-embedded sections of Group 1 1. […] Mount slide using Permount and coveslip. a) the time depends on the type of hematoxylin used, 20 sec to 10 min (which can be determined by the use of test slides) b) filtrated before use Results

Row | Substance | No. of animals showing hair growth (Mice (C57BL/6) [1]) | Skin colour (external) (Mice (C57BL/6) [1]) | Skin colour (external): animals with this colour (Mice (C57BL/6) [1]) | Black colour in peeled skin (day 16) (Mice (C57BL/6) [1]) | % anagen induction** (Mice (C57BL/6) [1]) [%] | % anagen induction* (Mice (C57BL/6) [1]) [%] | day from which hair growth was evident (Mice (C57BL/6) [2]) [days] | hair growth effect (Mice (C57BL/6) [2]) | Hair growth score, Mean (Mice (C57BL/6) [2]; Day 1) | Hair growth score, Mean (Mice (C57BL/6) [2]; Day 2) | Hair growth score, Mean (Mice (C57BL/6) [2]; Day 5) | Hair growth score, Mean (Mice (C57BL/6) [2]; Day 6) | Hair growth score, Mean (Mice (C57BL/6) [2]; Day 7) | Hair growth score, Mean (Mice (C57BL/6) [2]; Day 8) | Hair growth score, Mean (Mice (C57BL/6) [2]; Day 9) | Hair growth score, Mean (Mice (C57BL/6) [2]; Day 12) | Hair growth score, Mean (Mice (C57BL/6) [2]; Day 13) | Hair growth score, Mean (Mice (C57BL/6) [2]; Day 14) | Hair growth score, Mean (Mice (C57BL/6) [2]; Day 15) | Hair growth score, Mean (Mice (C57BL/6) [2]; Day 16) | further results
1 | VDTYDGDISVVYGLR (Preferred 15-amino acid peptide) [FOL-005] | 5/5 | Black | (5/5 animals) | 3/5 | 60 | 100 | 5 | rapid hair growth; also recorded: particular fast onset of action | 0.0 | 0.0 | 1.3 | 1.7 | 1.9 | 2.1 | 2.3 | 2.7 | 2.8 | 2.8 | 3.0 | 3.0 | Hair growth score (Mice (C57BL/6) [2]; Day 5, individual animal, 60 nM, 25 μl s.c. on Days 1, 5 and 9): 2.0; Follicle count in subcutis (no.) (Mice (C57BL/6) [3]; all animals): 34.80 ± 14.58 no.; Skin thickness (Mice (C57BL/6) [3]; all animals): 348.80 ± 40.05; Follicle count in subcutis (no.) (Mice (C57BL/6) [3]; animals in anagen only): 58 ± 14.58 no.; Skin thickness (Mice (C57BL/6) [3]; animals in anagen only): 348.80 ± 40.05
2 | VDVPNGRGDSLAYGLR (FOL-001) [fragment of wildtype mouse osteopontin, region from which FOL-004 is derived] |  |  |  |  |  |  |  |  |  |  |  |  |  |  |  |  |  |  |  |  | day at which hair growth effect became evident (Mice (C57BL/6) [4]; 60 nM s.c. on Days 1, 5 and 9): ~9 days; hair growth effect (Mice (C57BL/6) [4]; 60 nM s.c. on Days 1, 5 and 9): delayed but detectable hair growth effect; plateau of hair growth score (Mice (C57BL/6) [4]; 60 nM s.c. on Days 1, 5 and 9): about 1.3; hair growth effect (Mice (C57BL/6) [4]; 60 nM s.c. on Days 1, 5 and 9, listed as equivalent non-mutated wild type sequence): delayed onset of hair growth stimulation; Hair growth score, Mean (Mice (C57BL/6) [4]; Day 1, 60 nM s.c. on Days 1, 5 and 9): 0; Hair growth score, Mean (Mice (C57BL/6) [4]; Day 2, 60 nM s.c. on Days 1, 5 and 9): 0; Hair growth score, Mean (Mice (C57BL/6) [4]; Day 5, 60 nM s.c. on Days 1, 5 and 9): 0.17; Hair growth score, Mean (Mice (C57BL/6) [4]; Day 6, 60 nM s.c. on Days 1, 5 and 9): 0.17; Hair growth score, Mean (Mice (C57BL/6) [4]; Day 7, 60 nM s.c. on Days 1, 5 and 9): 0.17; Hair growth score, Mean (Mice (C57BL/6) [4]; Day 8, 60 nM s.c. on Days 1, 5 and 9): 0.17; Hair growth score, Mean (Mice (C57BL/6) [4]; Day 9, 60 nM s.c. on Days 1, 5 and 9): 0.58; Hair growth score, Mean (Mice (C57BL/6) [4]; Day 12, 60 nM s.c. on Days 1, 5 and 9): 1.17; Hair growth score, Mean (Mice (C57BL/6) [4]; Day 13, 60 nM s.c. on Days 1, 5 and 9): 1.17; Hair growth score, Mean (Mice (C57BL/6) [4]; Day 14, 60 nM s.c. on Days 1, 5 and 9): 1.33; Hair growth score, Mean (Mice (C57BL/6) [4]; Day 15, 60 nM s.c. on Days 1, 5 and 9): 1.33; maximum effect relative to that observed with FOL-004 (Mice (C57BL/6) [4]; hair growth score): less than 50%
3 | wildtype mouse osteopontin: wildtype mouse osteopontin protein, comparator in Example A |  |  |  |  |  |  |  |  |  |  |  |  |  |  |  |  |  |  |  |  | effect on hair growth (male wtC57BL/6N mice): no detectable effect on hair growth
4 | VDVPNGDISLAYGLR (Preferred 15-amino acid peptide (FOL-004)) | 5/5 | Black | (5/5 animals) | 1/5 | 20 | 100 | 5 | rapid hair growth; also recorded: particular fast onset of action | 0.0 | 0.0 | 1.7 | 2.1 | 2.4 | 2.5 | 2.6 | 2.7 | 2.7 | 2.7 | 2.9 | 3.0 | Follicle count in subcutis (no.) (Mice (C57BL/6) [3]; all animals): 6.20 ± 5.80 no.; Skin thickness (Mice (C57BL/6) [3]; all animals): 312.2 ± 15.60; Follicle count in subcutis (no.) (Mice (C57BL/6) [3]; animals in anagen only): 29 ± 5.8 no.; Skin thickness (Mice (C57BL/6) [3]; animals in anagen only): 312.2 ± 15.60
